Reference: patent publication US20130274338A1, “PHARMACEUTICAL COMPOSITIONS COMPRISING DGLA, 15-OHEPA, AND/OR 15-HETRE AND METHODS OF REDUCING SEBUM PRODUCTION USING SAME” (priority 2012, published 2013)
Converted amounts (≈) assume the structure as drawn.

Test system: P. acnes
Experiment: Agar dilution method, growth of P. acnes and MIC, single compounds
Format: cell-based, Propionibacterium acnes
Design: key to Growth Index Plate 1 / Growth Index Plate 2 / Growth Index Plate 3 / Growth Index Avg: +++: confluent growth (comparable to control); ++: less confluent growth; +: marked reduction in growth to multiple tiny, single colonies; −: no growth present
Details: for MIC: Cutibacterium acnes, read-out: MIC (mg/mL) as per P-11-0007 or P-11-0008 Addendum A
Method: Several compounds including fatty acids such as DGLA, 15-OHEPA, and 15-HETrE were tested to determine their capacity to inhibit the growth of P. acnes. In an exemplary method, an agar dilution method was used to determine the minimum inhibitory concentration (MIC) of each tested compound. Briefly, the agar dilution method involved preparing a series of concentrations of each compound (e.g., nicotinamide, benzoyl peroxide, adapalene, metronidazole, DGLA, 15-OHEPA, and 15-HETrE) in a Reinforced Clostridial Agar (RCA) media that facilitates growth of P. acnes under anaerobic conditions. An inoculum of P. acnes was prepared by incubation of P. acnes for approximately seven days at 35-37° C. to achieve a ≧1.0 OD600 inoculum of P. acnes in RCM broth. A portion of this inoculum was then added to the surface of each plate as a 10 μL spot and incubated at 35-37° C. for 72 hours or more. Growth of P. acnes was then observed and compared to control plates in which no compound has been added, and positive inhibition plates prepared with erythromycin. […] The growth of P. acnes in the presence of nicotinamide, benzoyl peroxide, adapalene, metronidazole, DGLA, 15-OHEPA, and 15-HETrE was determined with varying concentrations of the compound (see, Table 2). Next, the MIC was determined as the concentration at which a marked reduction (+) occurs in the appearance of growth on the test plate (as per Clinical and Laboratory Standards Institute M11-A7).

[1] = compound alone, MIC = concentration with marked reduction (+) of growth

Row | MIC [1] [mg/mL] | SMILES | Growth Index Avg (compound at 0.2 mg/mL) | Growth Index Plate 1 (compound at 0.2 mg/mL) | Growth Index Plate 2 (compound at 0.2 mg/mL) | Growth Index Plate 3 (compound at 0.2 mg/mL) | Growth Index Avg (compound at 0.4 mg/mL) | Growth Index Plate 1 (compound at 0.4 mg/mL) | Growth Index Plate 2 (compound at 0.4 mg/mL) | Growth Index Plate 3 (compound at 0.4 mg/mL) | Growth Index Avg (compound at 0.6 mg/mL) | Growth Index Plate 1 (compound at 0.6 mg/mL) | Growth Index Plate 2 (compound at 0.6 mg/mL) | Growth Index Plate 3 (compound at 0.6 mg/mL) | Growth Index Avg (compound at 0.8 mg/mL) | Growth Index Plate 1 (compound at 0.8 mg/mL) | Growth Index Plate 2 (compound at 0.8 mg/mL) | Growth Index Plate 3 (compound at 0.8 mg/mL) | Growth Index Avg (compound at 1.0 mg/mL) | Growth Index Plate 1 (compound at 1.0 mg/mL) | Growth Index Plate 2 (compound at 1.0 mg/mL) | also measured
1 | > 0.8 | COc1ccc(-c2ccc3cc(C(=O)O)ccc3c2)cc1C12CC3CC(CC(C3)C1)C2 [Adapalene, 6-[3-(1-adamantyl)-4-methoxyphenyl]-2-naphthoic acid] | +++ | +++ | +++ | +++ | +++ | +++ | +++ | +++ | ++ | ++ | ++ | +++ | ++ | ++ | ++ | ++ |  |  |  | MIC (mg/mL) as per P-11-0007 or P-11-0008 Addendum A [1]: > 0.8 mg/mL
2 | 0.6 to 0.8 (≈ 2.48 to 3.3 mM) | O=C(OOC(=O)c1ccccc1)c1ccccc1 [Benzoyl Peroxide] | +++ | +++ | +++ | +++ | +++ | +++ | +++ | +++ | ++ | ++ | +++ | ++ | + | + | + | + | − | − | − | Growth Index Plate 3 (compound at 1.0 mg/mL): −
3 | > 1 | Cc1ncc([N+](=O)[O-])n1CCO [Metronidazole] | +++ | +++ | +++ | +++ | +++ | +++ | +++ | +++ | +++ | +++ | +++ | +++ | +++ | +++ | +++ | +++ | +++ | +++ | ++ | Growth Index Plate 3 (compound at 1.0 mg/mL): +++
4 | 10 to 15 (≈ 81.9 to 123 mM) | NC(=O)c1cccnc1 [Nicotinamide] |  |  |  |  |  |  |  |  |  |  |  |  |  |  |  |  |  |  |  | Growth Index Avg (compound at 1 mg/mL): +++; Growth Index Plate 1 (compound at 1 mg/mL): +++; Growth Index Plate 2 (compound at 1 mg/mL): +++; Growth Index Plate 3 (compound at 1 mg/mL): +++; Growth Index Avg (compound at 5 mg/mL): +++; Growth Index Plate 1 (compound at 5 mg/mL): +++; Growth Index Plate 2 (compound at 5 mg/mL): +++; Growth Index Plate 3 (compound at 5 mg/mL): +++; Growth Index Avg (compound at 10 mg/mL): ++; Growth Index Plate 1 (compound at 10 mg/mL): ++; Growth Index Plate 2 (compound at 10 mg/mL): ++; Growth Index Plate 3 (compound at 10 mg/mL): ++; Growth Index Avg (compound at 15 mg/mL): +; Growth Index Plate 1 (compound at 15 mg/mL): −; Growth Index Plate 2 (compound at 15 mg/mL): +; Growth Index Plate 3 (compound at 15 mg/mL): +; Growth Index Avg (compound at 25 mg/mL): −; Growth Index Plate 1 (compound at 25 mg/mL): −; Growth Index Plate 2 (compound at 25 mg/mL): −; Growth Index Plate 3 (compound at 25 mg/mL): −
